Measurements as given in US20250270173A1, “PYRIDINE DERIVATIVES FOR TREATING PSYCHIATRIC DISORDERS” (GILGAMESH PHARMACEUTICALS, INC., priority 2022, published 2025).
pEC50, pKi: −log10 of the molar value. Like-named read-outs stand apart in the source and are kept apart here.

How the values were obtained:
5-HT2A receptor [1] = molecular target: T1, 5-HT2A receptor (Homo sapiens (Human), UniProt P28223); test: FLIPR Ca2+ flux functional assay at 5-HT2A (HEK293); settings: for 5-HT2A % Act @ Max Conc.: Ca2+ flux, HEK293, at max concentration
5-HT2A receptor [2] = molecular target: T1, 5-HT2A receptor; test: 5-HT2A receptor radioligand binding with [3H]ketanserin; settings: for Ki: read-out: Ki at 5-HT2A Receptor (nM) ([3H]ketanserin), HEK293 stable cell line, 1 nM [3H]ketanserin, 1 h, 25 °C
5-HT2B receptor = 5-HT2B receptor (Homo sapiens (Human), UniProt P41595); test: FLIPR Ca2+ flux functional assay at 5-HT2B (HEK293); settings: for 5-HT2B % Act @ Max Conc.: Ca2+ flux, HEK293, at max concentration
5-HT2B receptor, sequence (P41595 whole entry, looked up): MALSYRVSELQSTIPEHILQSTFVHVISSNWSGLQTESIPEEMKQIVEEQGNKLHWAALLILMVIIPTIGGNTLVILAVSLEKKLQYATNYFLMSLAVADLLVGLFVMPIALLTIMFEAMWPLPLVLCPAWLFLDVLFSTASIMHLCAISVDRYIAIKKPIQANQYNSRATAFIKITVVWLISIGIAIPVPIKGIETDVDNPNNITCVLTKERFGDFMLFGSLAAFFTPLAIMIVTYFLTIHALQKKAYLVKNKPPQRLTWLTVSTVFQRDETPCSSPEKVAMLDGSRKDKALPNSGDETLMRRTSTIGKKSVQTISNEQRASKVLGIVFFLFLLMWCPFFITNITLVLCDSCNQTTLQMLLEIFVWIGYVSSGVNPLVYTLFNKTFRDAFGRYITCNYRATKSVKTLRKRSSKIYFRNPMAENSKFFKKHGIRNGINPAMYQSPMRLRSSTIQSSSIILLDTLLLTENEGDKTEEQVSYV

5-HT1A receptor = 5-HT1A receptor (Homo sapiens (Human), UniProt P08908); test: FLIPR Ca2+ flux functional assay at 5-HT1A (CHO cells); settings: for 5-HT1A % Act @ Max Conc.: Ca2+ flux, CHO cells, at max concentration

For `CCCCCc1cc(OC)c(CC(C)N)nc1OC` (stereo not shown) [Compound 4, 1-(3,6-dimethoxy-5-pentylpyridin-2-yl)propan-2-amine], the pEC50 (5-HT2A receptor [1]) was 7.81, the “5-HT2A % Act @ Max Conc.” value (5-HT2A receptor [1]) was 132.71% and the Ki (5-HT2A receptor [2]) was 26.2 nM. For the same molecule, the pEC50 (5-HT2B receptor) was < 5.00, the “5-HT2B % Act @ Max Conc.” value (5-HT2B receptor) was 14.53% and the pEC50 (5-HT1A receptor) was 4.32. For the same molecule, the “5-HT1A % Act @ Max Conc.” value (5-HT1A receptor) was 67.31%.

For `COc1cc(Cl)c(OC)nc1CCN` [Compound 16, 2-(5-chloro-3,6-dimethoxypyridin-2-yl)ethan-1-amine], the pEC50 (5-HT2A receptor [1]) was 7.70, the “5-HT2A % Act @ Max Conc.” value (5-HT2A receptor [1]) was 97.33% and the Ki (5-HT2A receptor [2]) was 264 nM. The pEC50 (5-HT2B receptor) was 5.86, the “5-HT2B % Act @ Max Conc.” value (5-HT2B receptor) was 38.95% and the pEC50 (5-HT1A receptor) was < 4.00. The “5-HT1A % Act @ Max Conc.” value (5-HT1A receptor) was 5.31%.

With `COc1cc(Cl)c(OC)nc1CC(C)N` (stereo not shown) [Compound 17, 1-(5-chloro-3,6-dimethoxypyridin-2-yl)propan-2-amine] the pEC50 (5-HT2A receptor [1]) was 8.20, the “5-HT2A % Act @ Max Conc.” value (5-HT2A receptor [1]) was 99.4% and the Ki (5-HT2A receptor [2]) was 404 nM. For the same molecule, the pEC50 (5-HT2B receptor) was 6.27, the “5-HT2B % Act @ Max Conc.” value (5-HT2B receptor) was 70.03% and the pEC50 (5-HT1A receptor) was < 4.00. The “5-HT1A % Act @ Max Conc.” value (5-HT1A receptor) was 0.79%.

For `CCc1cc(OC)c(CCN)nc1OC` [Compound 19, 2-(5-ethyl-3,6-dimethoxypyridin-2-yl)ethan-1-amine], the pEC50 (5-HT2A receptor [1]) was 7.69, the “5-HT2A % Act @ Max Conc.” value (5-HT2A receptor [1]) was 96.03% and the Ki (5-HT2A receptor [2]) was 111 nM. For the same molecule, the pEC50 (5-HT2B receptor) was 6.66, the “5-HT2B % Act @ Max Conc.” value (5-HT2B receptor) was 20.07% and the pEC50 (5-HT1A receptor) was 4.92. The “5-HT1A % Act @ Max Conc.” value (5-HT1A receptor) was 1.25%.

For `CCc1cc(OC)c(CC(C)N)nc1OC` (stereo not shown) [Compound 20, 1-(5-ethyl-3,6-dimethoxypyridin-2-yl)propan-2-amine], the pEC50 (5-HT2A receptor [1]) was 8.24, the “5-HT2A % Act @ Max Conc.” value (5-HT2A receptor [1]) was 98.11% and the Ki (5-HT2A receptor [2]) was 322 nM. The pEC50 (5-HT2B receptor) was 6.53, the “5-HT2B % Act @ Max Conc.” value (5-HT2B receptor) was 75.75% and the pEC50 (5-HT1A receptor) was < 4.00. The “5-HT1A % Act @ Max Conc.” value (5-HT1A receptor) was 0.9%.

With `COc1ccccc1CNCCc1nc(OC)c(Br)cc1OC` [Compound 25, 2-(5-bromo-3,6-dimethoxypyridin-2-yl)-N-(2-methoxybenzyl)ethan-1-amine] the pEC50 (5-HT2A receptor [1]) was 8.80, the “5-HT2A % Act @ Max Conc.” value (5-HT2A receptor [1]) was 93.57% and the Ki (5-HT2A receptor [2]) was 0.35 nM. The pEC50 (5-HT2B receptor) was < 5.00, the “5-HT2B % Act @ Max Conc.” value (5-HT2B receptor) was 8.22% and the pEC50 (5-HT1A receptor) was < 4.00. For the same molecule, the “5-HT1A % Act @ Max Conc.” value (5-HT1A receptor) was 21.35%.

In the case of `COc1cc(C2CC2)c(OC)nc1CC(C)N` (stereo not shown) [Compound 27, 1-(5-cyclopropyl-3,6-dimethoxypyridin-2-yl)propan-2-amine], the pEC50 (5-HT2A receptor [1]) was 7.82, the “5-HT2A % Act @ Max Conc.” value (5-HT2A receptor [1]) was 104.13% and the Ki (5-HT2A receptor [2]) was 304 nM. The pEC50 (5-HT2B receptor) was 6.61, the “5-HT2B % Act @ Max Conc.” value (5-HT2B receptor) was 61.18% and the pEC50 (5-HT1A receptor) was < 4.00. The “5-HT1A % Act @ Max Conc.” value (5-HT1A receptor) was 0.49%.

For `COc1cc(CCCC(F)(F)F)c(OC)nc1CCN` [Compound 33, 2-(3,6-dimethoxy-5-(4,4,4-trifluorobutyl)pyridin-2-yl)ethan-1-amine], the pEC50 (5-HT2A receptor [1]) was 7.34, the “5-HT2A % Act @ Max Conc.” value (5-HT2A receptor [1]) was 68.5% and the Ki (5-HT2A receptor [2]) was 104 nM. For the same molecule, the pEC50 (5-HT2B receptor) was < 5.00, the “5-HT2B % Act @ Max Conc.” value (5-HT2B receptor) was 1.05% and the pEC50 (5-HT1A receptor) was < 4.00. For the same molecule, the “5-HT1A % Act @ Max Conc.” value (5-HT1A receptor) was 10.46%.

`COc1cc(CCCCCF)c(OC)nc1CCN` [Compound 34, 2-(5-(5-fluoropentyl)-3,6-dimethoxypyridin-2-yl)ethan-1-amine] was tested, and the pEC50 (5-HT2A receptor [1]) was 7.87, the “5-HT2A % Act @ Max Conc.” value (5-HT2A receptor [1]) was 64.66% and the Ki (5-HT2A receptor [2]) was 10.2 nM. For the same molecule, the pEC50 (5-HT2B receptor) was < 5.00, the “5-HT2B % Act @ Max Conc.” value (5-HT2B receptor) was 7.93% and the pEC50 (5-HT1A receptor) was < 4.00. For the same molecule, the “5-HT1A % Act @ Max Conc.” value (5-HT1A receptor) was 4.8%.

For `COc1cc(CCCCC(F)(F)F)c(OC)nc1CCN` [Compound 35, 2-(3,6-dimethoxy-5-(5,5,5-trifluoropentyl)pyridin-2-yl)ethan-1-amine], the pEC50 (5-HT2A receptor [1]) was 7.41, the “5-HT2A % Act @ Max Conc.” value (5-HT2A receptor [1]) was 48.95% and the pKi (5-HT2A receptor [2]) was 7.87. The pEC50 (5-HT2B receptor) was 6.47, the “5-HT2B % Act @ Max Conc.” value (5-HT2B receptor) was 32.44% and the pEC50 (5-HT1A receptor) was < 4.00. The “5-HT1A % Act @ Max Conc.” value (5-HT1A receptor) was 41.47%.
